The source of these data is US6887468B1 (Board of Regents, The University of Texas System, priority 1999, dated 2005).

For one assay, the target named is T1, mouse VEGF (Mus musculus, UniProt Q00731).
T1 sequence (Q00731 27-190 isoform Q00731-2): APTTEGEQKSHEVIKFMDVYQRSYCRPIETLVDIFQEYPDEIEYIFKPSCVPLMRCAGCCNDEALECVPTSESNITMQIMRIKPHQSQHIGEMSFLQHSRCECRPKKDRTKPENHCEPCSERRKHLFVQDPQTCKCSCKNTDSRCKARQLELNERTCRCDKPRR
The assay is described as follows: Indirect ELISA with mouse VEGF. Format: binding.

In assay [1] the test system is VEGFR2 (KDR/Flk-1), sFlk-1-biotin. The assay is described as follows: ELISA: VEGF binding to VEGFR2-coated wells in presence of antibody. More on the design: species or system mouse. As for the experimental part:
(§1) FIG. 2. […] The plate was then incubated with rabbit anti-VEGF (A-20, Santa Cruz Biotechnology, Inc.) at 1 μg/ml and developed using a peroxidase conjugated goat anti-rabbit antibody. Assays were performed in triplicate. Mean percent binding in the absence of antibody is shown, together with the standard deviation.
(§2) The assay was also performed by coating wells of a microtiter plate with either control or test IgG.
Background: ELISA stands for enzyme-linked immunosorbent assay.

The next assay deals with VEGFR1 (FLT-1), Flt-1/Fc. The assay is described as follows: ELISA: VEGF binding to VEGFR1-coated wells in presence of antibody. Particulars: summary table. On the procedure:
as §1, §2

The next assay relates to NCI-H358 NSCLC tumors. The assay is described as follows: Treatment of established NCI-H358 NSCLC tumor xenografts. The format is in vivo, nu/nu mice. On the procedure: FIG. 4. […] Mean tumor volume along with the SEM over 116 days is shown.
(§3) FIG. 5A and FIG. 5B. […] Treatments (T) were 100 μg of the IgG given i.p., except for the initial treatment that consisted of 500 μg of the IgG given i.v. Mean tumor volume along with the SEM is shown. At the end of the study (day 116), the mice were sacrificed and the tumors dissected out and weighed. […] The mice were treated every other day as indicated (T). […] Mean tumor volume along with the SE is shown.
(§4) Male nu/nu mice bearing subcutaneous NCI-H358 tumors or HT1080 fibrosarcoma 200-400 mm^3 in size were injected i.p. with test or control antibodies. The NCI-H358 bearing mice were treated with 100 μg of antibodies per injection three times a week during the first week and twice a week during the second and third week. The mice were then switched to 50 μg per injection every five days. The HT1080 bearing mice were treated with 100 μg of the indicated antibody or saline every other day throughout the duration of the study. In both studies, mice were sacrificed when their tumors reached 2500 mm^3 in size or earlier if tumors began to ulcerate.
Doses were 50-100 μg every 3-5 days. […] In addition to measuring mean tumor volume (FIG. 4), photographs of the mice from each treatment group were also taken to show the differences in tumor size and appearance at the end of the study.

The subject of a further assay is HT1080 fibrosarcoma. Kind of assay: Treatment of established HT1080 fibrosarcoma xenografts. Particulars: 100 μg every two days. The format is in vivo, nu/nu mice. As for the experimental part:
as §3, §4

Entries after “also recorded” stand apart in the source; their conditions may differ.

“2C3: anti-VEGF monoclonal IgG2a,k from hybridoma ATCC PTA 1595; blocks VEGF binding to VEGFR2 but not VEGFR1”: the “Reactivity with mouse VEGF” value with mouse VEGF is “all the antibodies except 2C3 react with mouse VEGF”. The “Reduction in VEGF binding to VEGFR2” value in assay [1] (100 fold molar excess over VEGF) is reported as “about 74%”; in assay [1] (1000 fold molar excess over VEGF), “about 81%”. In addition, the “VEGF bound to VEGFR2-coated wells, % of amount bound in absence of antibody” value in assay [1] (1000-fold molar excess over VEGF) is on record as approximately 19%. In addition, the “Blocks VEGF from binding to VEGFR2” value in assay [1] (summary table) was “Yes”. Moreover, the “Blocks VEGF from binding to VEGFR1” value in the assay on VEGFR1 (FLT-1), Flt-1/Fc is listed as “No”. Besides, in the assay with NCI-H358 NSCLC tumors (100 μg i.p., initial treatment 500 μg i.v.), the “Mean tumor weight at end of study (day 116)” value was found to be 0.054 g. In addition, the “Mean tumor volume after approximately 14 wk of treatment” value in the assay with NCI-H358 NSCLC tumors (100 μg, start 480 mm^3 (2C3), 428 mm^3 (3E7)) was determined as 84 mm^3. Also, the “Mean tumor volume at the end of the study as % of initial mean tumor volume” value in the assay with NCI-H358 NSCLC tumors (50-100 μg i.p. every 3-5 days, approximately 10 weeks) turned out to be 30%. Further, the “Decrease in mean tumor volume” value in the assay with NCI-H358 NSCLC tumors (approximately 14 wk of treatment, 100 μg) is on record as “approximately 80%”. The “Regression of established NCI-H358 tumors” value in the assay with NCI-H358 NSCLC tumors (mouse, in vivo) is “caused significant tumor regressions; also recorded: slow regression of the tumors”. The “Effect on growth of established HT1080 tumors” value in the assay with HT1080 fibrosarcoma is recorded as “arrested the growth of the tumors”.
